{
  "source": "paper PMC12844124",
  "about": "“Synthesis and Study of Substituted Chalcones Combined with Fluoroazobenzenes—New Photoswitches for Application in Biological Systems” (Molecules, 2026)",
  "assay_type_in_all_cases": "physicochemical",
  "key": {"[1]": {"assay": "Photostationary state (PSS) composition by 19F NMR", "details": "irradiation 525 nm, DMSO-d6", "from_the_text": "Azo compounds have been applied in various fields due to their ability to undergo structural changes, with one of the most interesting applications being the direct conversion of light into mechanical energy. However, azobenzenes generally face two main limitations that hinder their practical use in biological and materials sciences. The first is the need for UV light to induce the E→Z isomerization through π→π* excitation, which can potentially interfere with and damage the surrounding environment. The second limitation is the typically incomplete reverse Z→E photoisomerization, which is induced by irradiation in the visible region. In this region, the n→π* bands of the E and Z isomers largely overlap, making it difficult to achieve E-rich photostationary states (PSSs) after back-switching. These limitations can be overcome by modifying azobenzene in such a way that the n→π* bands of the E and Z isomers are sufficiently separated. If the separation is large enough, the two n→π* bands can be distinct, allowing visible light to selectively isomerize both isomers with high to complete E/Z photoconversions. We are looking for switches that operate within the visible light range of 380–750 nm, which is harmless. Fluorine-substituted azobenzenes are well-suited for designing visible-light-responsive systems, offering stable and bidirectional photoconversions along with tissue-compatible properties. We confirmed that the compounds we synthesized successfully dock with tubulin. In the next step, we tested whether the added azo compound would meet our expectations as a visible light switch. For this purpose, we used NMR spectroscopy. We measured ^19F spectra of (17a–17c, 17e–17g, and 17i–17l) at nine wavelengths from 390 nm to 610 nm to check which wavelengths produce the most Z isomer after exposure (see Section S4.2 in Supplementary Materials). We selected DMSO as the solvent due to its ability to dissolve both polar and nonpolar molecules, which is essential for the analytical methods employed in this study. Its intermediate polarity also makes it a good surrogate for both organic and aqueous solvents. Additionally, DMSO is commonly used for preparing stock solutions, which are then illuminated and diluted into aqueous systems for assessing biological activity. […]\nFigure 2 (a) Photostationary state (PSS) compositions for chalcones (17a–17c, 17e–17g, and 17i–17l) determined by ^19F NMR analysis (c ≈ 100 mM in DMSO-d6), presented in a bar chart; (b) representative multiple photoswitching rounds of 60 µM of (17j) in DMSO by pulsed green (525 nm) and blue (430 nm) light illumination. The photochemical stability of the drug is analyzed via repeated cycles of irradiation (software: Microsoft Excel)."}, "[2]": {"assay": "Changes over time of Z to E transition by 19F NMR", "details": "light 525 nm, 100 mM in DMSO", "from_the_text": "We can observe that for electromagnetic radiation in the range of wavelengths 390 nm to 610 nm, transitions from E to Z of about 0–76% are obtained. The best results for all compounds are in visible wavelengths 505 nm or 525 nm (30.59–75.44%). From analyzing Figure 2 we can draw the following conclusions: all synthesized compounds undergo switching under visible light (this is important because UV radiation can damage the DNA of cells, inhibiting replication and, as a result, preventing cell division). For the 2,6-difluoro substituents (17i), (17j), (17k), and (17l) with values of 74.84%, 73.2%, 74.39%, and 75.44%, respectively, the largest share of the Z configuration is at (525 nm) and, for the rest of (17a), (17b), (17c), (17e), (17f), and (17g), it is in range of 30.57–47.13% at 505 nm. […] Multiple cycles of photoreversible switching under alternating green and blue light irradiation, with no significant photobleaching or degradation, confirmed the repeatable and robust photochromic conversion of the synthesized azobenzenes (Figure 2b). Then we measured changes over time (transitions from Z to E, upon irradiation with 505 nm for (17a–17c) and (17e–17g), and 525 nm for (17i–17l) compounds (Figure 3, and see Section S4.3 in Supplementary Materials)."}, "Solubility in DMSO": {"assay": "Solubility in DMSO"}, "[3]": {"assay": "UV–VIS spectra of E/Z isomers in DMSO", "details": "for Δ λmax n→π*: between E and Z isomers", "procedure": "For this purpose, the UV–VIS spectra were measured for all synthesized hybrids (17a–17l) at concentrations from 20 to 500 µM in dimethyl sulfoxide (DMSO) in light at λ 505 nm and for (17a–17c), (17e–17g), and (17i–17l) at λ 525 nm, respectively, as detailed in Table 1 (see Section S4.4 in Supplementary Materials)."}},
  "data": [
    {"smiles": "COc1cc(/C=C/C(=O)c2cccc(/N=N/c3c(F)cccc3F)c2)cc(OC)c1OC", "note": "[Compound 17k]", "values": [
      {"measurement": "share of the Z configuration (PSS)", "setting": "[1]", "value": 74.39, "unit": "%"},
      {"measurement": "Z isomer, changes over time", "setting": "[2]; 0 h", "value": 74.39, "unit": "%"},
      {"measurement": "Z isomer, changes over time", "setting": "[2]; 1 h", "value": 74.02, "unit": "%"},
      {"measurement": "Z isomer, changes over time", "setting": "[2]; 2 h", "value": 72.48, "unit": "%"},
      {"measurement": "Z isomer, changes over time", "setting": "[2]; 3 h", "value": 72.26, "unit": "%"},
      {"measurement": "Z isomer, changes over time", "setting": "[2]; 4 h", "value": 70.95, "unit": "%"},
      {"measurement": "Z isomer, changes over time", "setting": "[2]; 5 h", "value": 70.43, "unit": "%"},
      {"measurement": "Z isomer, changes over time", "setting": "[2]; 6 h", "value": 69.33, "unit": "%"},
      {"measurement": "Z isomer, changes over time", "setting": "[2]; 7 h", "value": 67.93, "unit": "%"},
      {"measurement": "Z isomer, changes over time", "setting": "[2]; 8 h", "value": 67.18, "unit": "%"},
      {"measurement": "Δ (Z to E change 0 h to 8 h)", "setting": "[2]", "value": 7.21, "unit": "%"}
    ]},
    {"smiles": "COc1ccc(/C=C/C(=O)c2cccc(/N=N/c3c(F)cccc3F)c2)cc1OC", "note": "[Compound 17i]", "values": [
      {"measurement": "share of the Z configuration (PSS)", "setting": "[1]", "value": 74.84, "unit": "%"},
      {"measurement": "Z isomer, changes over time", "setting": "[2]; 0 h", "value": 74.84, "unit": "%"},
      {"measurement": "Z isomer, changes over time", "setting": "[2]; 1 h", "value": 73.32, "unit": "%"},
      {"measurement": "Z isomer, changes over time", "setting": "[2]; 2 h", "value": 72.17, "unit": "%"},
      {"measurement": "Z isomer, changes over time", "setting": "[2]; 3 h", "value": 70.9, "unit": "%"},
      {"measurement": "Z isomer, changes over time", "setting": "[2]; 4 h", "value": 69.59, "unit": "%"},
      {"measurement": "Z isomer, changes over time", "setting": "[2]; 5 h", "value": 68.98, "unit": "%"},
      {"measurement": "Z isomer, changes over time", "setting": "[2]; 6 h", "value": 68, "unit": "%"},
      {"measurement": "Z isomer, changes over time", "setting": "[2]; 7 h", "value": 67.46, "unit": "%"},
      {"measurement": "Z isomer, changes over time", "setting": "[2]; 8 h", "value": 66.19, "unit": "%"},
      {"measurement": "Δ (Z to E change 0 h to 8 h)", "setting": "[2]", "value": 8.65, "unit": "%"}
    ]},
    {"smiles": "O=C(/C=C/c1ccc(Br)cc1)c1cccc(/N=N/c2ccc(F)cc2F)c1", "note": "[Compound 17h]", "values": [
      {"measurement": "solubility in DMSO", "setting": "Solubility in DMSO", "value": "poorly soluble"},
      {"measurement": "εmax (n→π*)", "setting": "[3]; E isomer", "value": 796, "unit": "dm^3·mol^−1·cm^−1"},
      {"measurement": "λmax n→π* (E)", "setting": "[3]; E isomer", "value": 441.2, "unit": "nm"},
      {"measurement": "εmax (n→π*)", "setting": "[3]; Z isomer", "value": 1016, "unit": "dm^3·mol^−1·cm^−1"},
      {"measurement": "λmax n→π* (Z)", "setting": "[3]; Z isomer", "value": 426.9, "unit": "nm"},
      {"measurement": "Δ λmax n→π*", "setting": "[3]", "value": 14.3, "unit": "nm"}
    ]},
    {"smiles": "O=C(/C=C/c1ccc(Br)cc1)c1cccc(/N=N/c2ccc(F)cc2)c1", "note": "[Compound 17d]", "values": [
      {"measurement": "solubility in DMSO", "setting": "Solubility in DMSO", "value": "poorly soluble"},
      {"measurement": "εmax (n→π*)", "setting": "[3]; E isomer", "value": 660, "unit": "dm^3·mol^−1·cm^−1"},
      {"measurement": "λmax n→π* (E)", "setting": "[3]; E isomer", "value": 440.8, "unit": "nm"},
      {"measurement": "εmax (n→π*)", "setting": "[3]; Z isomer", "value": 850, "unit": "dm^3·mol^−1·cm^−1"},
      {"measurement": "λmax n→π* (Z)", "setting": "[3]; Z isomer", "value": 434.1, "unit": "nm"},
      {"measurement": "Δ λmax n→π*", "setting": "[3]", "value": 6.7, "unit": "nm"}
    ]},
    {"smiles": "O=C(/C=C/c1ccc(Br)cc1)c1cccc(/N=N/c2c(F)cccc2F)c1", "note": "[Compound 17l]", "values": [
      {"measurement": "share of the Z configuration (PSS)", "setting": "[1]", "value": 75.44, "unit": "%"},
      {"measurement": "Z isomer, changes over time", "setting": "[2]; 0 h", "value": 75.44, "unit": "%"},
      {"measurement": "Z isomer, changes over time", "setting": "[2]; 1 h", "value": 74.04, "unit": "%"},
      {"measurement": "Z isomer, changes over time", "setting": "[2]; 2 h", "value": 72.7, "unit": "%"},
      {"measurement": "Z isomer, changes over time", "setting": "[2]; 3 h", "value": 71.56, "unit": "%"},
      {"measurement": "Z isomer, changes over time", "setting": "[2]; 4 h", "value": 70.77, "unit": "%"},
      {"measurement": "Z isomer, changes over time", "setting": "[2]; 5 h", "value": 69.92, "unit": "%"},
      {"measurement": "Z isomer, changes over time", "setting": "[2]; 6 h", "value": 68.63, "unit": "%"},
      {"measurement": "Z isomer, changes over time", "setting": "[2]; 7 h", "value": 67.93, "unit": "%"},
      {"measurement": "Z isomer, changes over time", "setting": "[2]; 8 h", "value": 67.78, "unit": "%"},
      {"measurement": "Δ (Z to E change 0 h to 8 h)", "setting": "[2]", "value": 7.66, "unit": "%"},
      {"measurement": "εmax (n→π*)", "setting": "[3]; E isomer", "value": 902, "unit": "dm^3·mol^−1·cm^−1"},
      {"measurement": "λmax n→π* (E)", "setting": "[3]; E isomer", "value": 448.6, "unit": "nm"},
      {"measurement": "εmax (n→π*)", "setting": "[3]; Z isomer", "value": 1074, "unit": "dm^3·mol^−1·cm^−1"},
      {"measurement": "λmax n→π* (Z)", "setting": "[3]; Z isomer", "value": 417.9, "unit": "nm"},
      {"measurement": "Δ λmax n→π*", "setting": "[3]", "value": 30.7, "unit": "nm"}
    ]}
  ]
}
